Measured values: paper PMC9227536, “Prediction of Pharmacokinetics of IDP-73152 in Humans Using Physiologically-Based Pharmacokinetics” (Pharmaceutics, 2022)

Legend:
[1] = Metabolic stability in rat hepatocytes; format: in vitro ADME
Procedure: For the hepatocyte incubation study, rat hepatocytes were freshly prepared using the two-step collagenase perfusion method with slight modifications. After the isolation, cell viability during the preparation process was first determined by a trypan blue exclusion assay prior to the stability study. The preparation was considered adequate for subsequent studies if the viability was greater than 80%. When appropriate, the hepatocytes were resuspended in Williams' media E containing 10% fetal bovine serum, 1% penicillin-streptomycin, and 0.01% insulin-transferrin-selenium (i.e., 10 mg/mL insulin, 5.5 mg/mL transferrin, and 5 mg/mL selenium) at pH 7.4. […] Assuming first-order disappearance kinetics, the slope k of the logarithmically transformed IDP-73152 concentration in the sample versus time plot was determined by the linear regression analysis of the data. The total intrinsic clearance (CLint,mic, μL/min/mg protein for microsomal incubation study and CLint,hep, μL/min/million cells for hepatocytes incubation study) was then calculated using the following equations:(4) CLint, mic=k×Volume of incubation medium (μL)/Protein in incubation medium (mg) (5) CLint,hep=k×Volume of incubation (μL)/Number of cells in incubation (×10^6) The unbound intrinsic clearance, with respect to the whole liver ([…]), was then estimated for the two cases. […]

[2] = Stability in plasma, mouse; format: in vitro ADME; settings: mice plasma
Procedure: (§1) The unbound fractions of IDP-73152 in various matrices were measured according to the manufacturer's instructions for the rapid equilibrium dialysis (RED) device (ThermoFisher Scientific, Waltham, MA, USA). Briefly, IDP-73152 was added to the plasma or the microsomal/hepatocyte incubation buffer from various species (i.e., mouse, rat, dog, and human for microsomal incubation; rat for hepatocyte incubation) to obtain final concentrations of the compound at 0.3, 1, and 3 μM. After the membrane insert was placed in the RED plate, the solution containing IDP-73152 was added (400 μL) to the sample chamber, and the dialysis buffer (600 μL) was added to the buffer chamber. The RED plate was sealed with parafilm and then incubated at 37 °C in the orbital shaker (Lab Companion, Daejeon, Korea) at 100 rpm for 5 h. […] The IDP-73152 concentration in the buffer/sample chambers (i.e., CBuffer Chamber and CSample Chamber) was determined by an assay. Thus, the fraction unbound was defined as:(2) % Fraction unbound=(CBuffer Chamber/CSample Chamber)×100% When necessary, the stability of IDP-73152 in the matrix was also determined at 5 h. […] Accordingly, the kinetics of IDP-73152 instability were determined in the rat blood at a final concentration of 0.3 μM. […]

Stability in plasma, dog = format: in vitro ADME; settings: dogs plasma
Procedure: as §1

[3] = Physicochemical properties (Table S3)
[4] = Stability in plasma, human; format: in vitro ADME; settings: humans plasma
Procedure: as §1

[5] = Unbound fraction in plasma (rapid equilibrium dialysis), mouse; format: in vitro ADME; settings: mice plasma, 0.3, 1, 3 μM, RED 5 h, read-out: fu,p
Procedure: (§2) The unbound fractions of IDP-73152 in various matrices were measured according to the manufacturer’s instructions for the rapid equilibrium dialysis (RED) device (ThermoFisher Scientific, Waltham, MA, USA). Briefly, IDP-73152 was added to the plasma or the microsomal/hepatocyte incubation buffer from various species (i.e., mouse, rat, dog, and human for microsomal incubation; rat for hepatocyte incubation) to obtain final concentrations of the compound at 0.3, 1, and 3 μM. After the membrane insert was placed in the RED plate, the solution containing IDP-73152 was added (400 µL) to the sample chamber, and the dialysis buffer (600 μL) was added to the buffer chamber. The RED plate was sealed with parafilm and then incubated at 37 °C in the orbital shaker (Lab Companion, Daejeon, Korea) at 100 rpm for 5 h. After a 50 μL aliquot was aspirated from both the sample and buffer chambers, an equal volume of protein-free buffer or blank medium was replaced in the aspirated sample or buffer to render the matrices compositionally identical. The IDP-73152 concentration in the buffer/sample chambers (i.e., CBuffer Chamber and CSample Chamber) was determined by an assay. Thus, the fraction unbound was defined as:(2) % Fraction unbound=(CBuffer Chamber/CSample Chamber)×100%

in vitro = in vitro ADME; settings: microsomes
Procedure: as §2

Compound: CC(C)(C)[C@H](NC(=O)[C@H](CC1CCCC1)CN(O)C=O)C(=O)N1CCC(NCc2cc(F)c(F)cc2F)CC1 [IDP-73152]
- hepatocyte CLint at 1 μM ([1]; freshly isolated hepatocytes in suspension, pH 7.4, rat hepatocytes 0.5 × 10^6 cells/mL, 1 μM, read-out: CL,int,hep): 27.7 ± 3.2 µL/min/1e6 cells
- CLu,int,H ([1]; rats, scaled from rat hepatocytes): 6.82 ± 0.79 L/h
- percentage remaining in plasma at 5 h ([2]; 5 h, 37 °C): 92.3 ± 2.7%
- stability in plasma ([2]; preliminary study): stable
- percentage remaining in plasma at 5 h (Stability in plasma, dog; 5 h, 37 °C): 101 ± 6%
- stability in plasma (Stability in plasma, dog; preliminary study): stable
- logP [3]: -0.52
- pKa [3]: 8.8
- percentage remaining in plasma at 5 h ([4]; 5 h, 37 °C): 98.2 ± 3.4%
- stability in plasma ([4]; preliminary study): stable
- fraction unbound at 5 h [5]: 0.0562 ± 0.0087
- fraction unbound at 5 h (in vitro; dog): 0.507 ± 0.04
- fraction unbound at 5 h (in vitro; human): 0.579 ± 0.006
- fraction unbound at 5 h (in vitro; mouse): 0.571 ± 0.023
- fraction unbound at 5 h (in vitro; rat): 0.439 ± 0.043
